Test results as given in BindingDB's records for doi:10.1016/j.bioorg.2015.06.006 (Hazara University, 2015).

Target: Alpha-glucosidase MAL12 (Saccharomyces cerevisiae (strain ATCC 204508 / S288c), UniProt P53341)
Assay: Alpha-glucosidase Assay
Conditions: pH 6.8
Method: Total volume of 100 µL reaction mixture contained 70 µL 50 mM phosphate buffer pH 6.8, 10 µL test compound (0.5 mM in methanol) followed by the addition of 10 µL enzyme solution (0.057 units) in the buffer. The contents were mixed, pre-incubated for 10 min at 37 °C and pre-read at 400 nm. The reaction was initiated by the addition of 10 µL of 0.5 mM substrate (p-nitrophenyl glucopyranoside). After 30 min of incubation at 37 °C, absorbance of p-nitrophenol released was measured. Acarbose was used as positive control.

Sequence of Alpha-glucosidase MAL12 (P53341 whole entry): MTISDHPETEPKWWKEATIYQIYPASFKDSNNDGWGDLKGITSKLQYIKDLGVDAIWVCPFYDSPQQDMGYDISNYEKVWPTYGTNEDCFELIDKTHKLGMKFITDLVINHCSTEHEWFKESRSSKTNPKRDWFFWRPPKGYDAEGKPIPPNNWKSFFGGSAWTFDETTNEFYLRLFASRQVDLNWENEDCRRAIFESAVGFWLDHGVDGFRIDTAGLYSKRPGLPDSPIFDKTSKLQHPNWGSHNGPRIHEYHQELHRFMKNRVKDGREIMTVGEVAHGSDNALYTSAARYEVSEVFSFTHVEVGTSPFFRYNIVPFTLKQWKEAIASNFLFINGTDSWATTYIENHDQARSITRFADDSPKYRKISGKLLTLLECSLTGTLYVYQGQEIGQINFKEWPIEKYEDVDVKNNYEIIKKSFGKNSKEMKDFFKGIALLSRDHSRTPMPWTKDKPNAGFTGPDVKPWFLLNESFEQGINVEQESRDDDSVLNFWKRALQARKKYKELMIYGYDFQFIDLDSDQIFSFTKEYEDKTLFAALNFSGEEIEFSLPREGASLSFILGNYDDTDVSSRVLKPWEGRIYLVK

Row | IC50 [µM] | SMILES
1 | 424 | COc1ccc(-c2csc(N/N=C(\C)c3cccc([N+](=O)[O-])c3)n2)cc1 [(E)-4-(4-Methoxyphenyl)-2-(2-(1-(3-nitrophenyl)-ethylidene)hydrazinyl)thiazole (12)]
2 | 175 | Clc1ccc(-c2csc(N/N=C/c3ccc4ccccc4c3)n2)cc1 [(E)-4-(4-Chlorophenyl)-2-(2-(naphthalene-2-yl-methylene)hydrazinyl)thiazole (6)]
3 | 43.3 | C/C(=N\Nc1nc(-c2ccc(Cl)cc2)cs1)c1ccc([N+](=O)[O-])cc1Br [(E)-2-(2-(1-(2-Bromo-4-nitrophenyl)ethylidene)hydrazinyl)-4-(4-chlorophenyl)thiazole (2)]
4 | 239 | O=[N+]([O-])c1ccccc1/C=N/Nc1nc(-c2ccc(Cl)cc2)cs1 [(E)-4-(4-Chlorophenyl)-2-(2-(2-nitrobenzylidene)hydrazinyl)-thiazole (3)]
5 | 205 | CN(C)c1ccc(/C=N/Nc2nc(-c3ccc(Cl)cc3)cs2)cc1 [(E)-4-((2-(4-(4-Chlorophenyl)thiazol-2-yl)hydrazono)methyl)-N,N-dimethyl-aniline (5)]
6 | 176 | COc1ccc(/C=N/Nc2nc(-c3ccc(Cl)cc3)cs2)cc1O [(E)-5-((2-(4-(4-Chlorophenyl)thiazole-2-yl)hydrazono)-methyl)-2-methoxy-phenol (11)]
7 | 388 | C/C(=N\Nc1nc(-c2ccc(Cl)cc2)cs1)c1ccc(N2CCCCC2)cc1 [(E)-4-(4-Chlorophenyl)-2-(2-(1-(4-(piperidin-1-yl)phenyl)-ethylidene)hydrazinyl)thiazole (4)]

More lines, now with the values behind:

Row | SMILES | IC50 [µM]
8 | COc1ccc(-c2csc(N/N=C/c3ccc4ccccc4c3)n2)cc1 [(E)-4-(4-Methoxyphenyl)-2-(2-(naphthalen-2-yl-methylene)-hydrazinyl)thiazole (15)] | 194
9 | CC(C)(C)c1cc(/C=N/Nc2nc(-c3ccc(Cl)cc3)cs2)cc(C(C)(C)C)c1O [(E)-2,6-Di-t-butyl-4-((2-(4-(4-Chlorophenyl)thiazole-2-yl)-hydrazono)methyl)-phenol (8)] | 18.2
10 | Clc1ccc(-c2csc(N/N=C\c3cccc(/C=N/Nc4nc(-c5ccc(Cl)cc5)cs4)c3)n2)cc1 [1-((E)-(2-(4-(4-chlorophenyl)thiazol-2-yl)hydrazono)methyl)-3-((Z)-(2-(4-(4-chlorophenyl)thiazol-2-yl)hydrazono)methyl)benzene (9)] | 68.5
11 | COc1ccc(-c2csc(N/N=C/c3ccc(OCc4ccccc4)cc3)n2)cc1 [(E)-2-(2-(4-(Benzyloxy)benzylidene)hydrazinyl)-4-(4-methoxyphenyl)thiazole (16)] | 99.2
12 | COc1ccc(-c2csc(N/N=C/c3c4ccccc4cc4ccccc34)n2)cc1 [(E)-2-(2-(Anthracen-9-ylmethylene)hydrazinyl)-4-(4-methoxyphenyl)thiazole (13)] | 192
13 | O=[N+]([O-])c1cccc(/C=N/Nc2nc(-c3ccc(Cl)cc3)cs2)c1 [(E)-4-(4-Chlorophenyl)-2-(2-(3-nitrobenzylidene)hydrazinyl)-thiazole (1)] | 220
14 | COc1ccc(-c2csc(N/N=C/c3ccc(N(C)C)cc3)n2)cc1 [(E)-4-((2-(4-(4-Methoxyphenyl)thiazol-2-yl)hydrazono)-methyl)-N,N-dimethylaniline (14)] | 146
15 | Clc1ccc(-c2csc(N/N=C/c3ccc(OCc4ccccc4)cc3)n2)cc1 [(E)-2-(2-(4-(Benzyloxy)benzylidene)hydrazinyl)-4-(4-chlorophenyl)thiazole (7)] | 36.8
16 | COc1ccc(-c2csc(N/N=C\c3cccc(/C=N/Nc4nc(-c5ccc(OC)cc5)cs4)c3)n2)cc1 [1-((E)-(2-(4-(4-Methoxyphenyl)thiazol-2-yl)hydrazono)-methyl)-3-((Z)-(2-(4-(4-methoxyphenyl)thiazol-2-yl)hydrazono)-methyl)benzene (18)] | 55.4
17 | COc1ccc(-c2csc(N/N=C/c3ccc(O)c(O)c3)n2)cc1 [(E)-4-((2-(4-(4-Methoxyphenyl)thiazol-2-yl)hydrazono)-methyl)benzene-1,2-diol (21)] | 46.4
18 | COc1ccc(-c2csc(N/N=C/c3cc(C(C)(C)C)c(O)c(C(C)(C)C)c3)n2)cc1 [(E)-2,6-Di-tert-butyl-4-((2-(4-(4-Methoxyphenyl)thiazol-2-yl)hydrazono)-methyl)phenol (17)] | 123
19 | Clc1ccc(-c2csc(N/N=C/c3ccc(/C=N/Nc4ncc(-c5ccc(Cl)cc5)s4)cc3)n2)cc1 [5-(4-chlorophenyl)-2-((E)-2-(4-((E)-(2-(4-(4-chlorophenyl)-thiazol-2-yl)hydrazono)methyl)benzylidene)hydrazinyl)thiazole (10)] | 342
20 | COc1ccc(-c2csc(N/N=C/c3ccc(/C=N/Nc4ncc(-c5ccc(OC)cc5)s4)cc3)n2)cc1 [5-(4-methoxyphenyl)-2-((E)-2-(4-((E)-(2-(4-(4-methoxyphenyl)thiazol-2-yl)hydrazono)methyl)benzylidene)-hydrazinyl)thiazole (19)] | 226
21 | COc1ccc(-c2csc(N/N=C/c3ccc(OC)c(O)c3)n2)cc1 [(E)-2-Methoxy-5-((2-(4-(4-methoxyphenyl)thiazol-2-yl)-hydrazono)methyl)-phenol (20)] | 176
